From the NIST ThermoML archive (doi:10.1016/j.jct.2011.11.021)
Numbers after ± are expanded uncertainties.

Experiment: activity coefficient (dimensionless); of the first substance listed, at infinite dilution; xn = mol fraction of the nth substance listed
Settings: Liquid, Chromatography, x1 = 0

| SMILES | activity coefficient (318.15 K) | activity coefficient (328.15 K) | activity coefficient (338.15 K) | activity coefficient (348.15 K) | activity coefficient (358.15 K) | activity coefficient (368.15 K) |
| --- | --- | --- | --- | --- | --- | --- |
| CC(C)CC(C)(C)C [2,2,4-trimethylpentane] + COCC[N+]1(C)CCOCC1.O=S(=O)([N-]S(=O)(=O)C(F)(F)F)C(F)(F)F | 55.9 ± 3.8 | 49.5 ± 3.4 | 45 ± 3.1 | 40.8 ± 2.8 | 37.2 ± 2.5 | 34.1 ± 2.3 |
| Cc1ccccc1C [1,2-dimethylbenzene] + COCC[N+]1(C)CCOCC1.O=S(=O)([N-]S(=O)(=O)C(F)(F)F)C(F)(F)F | 2.75 ± 0.19 | 2.71 ± 0.18 | 2.68 ± 0.18 | 2.65 ± 0.18 | 2.61 ± 0.18 | 2.58 ± 0.18 |
| C=CCCCC [hex-1-ene] + COCC[N+]1(C)CCOCC1.O=S(=O)([N-]S(=O)(=O)C(F)(F)F)C(F)(F)F | 16.5 ± 1.1 | 15.3 ± 1 | 14.3 ± 1 | 13.6 ± 0.9 | 12.9 ± 0.9 | 12.1 ± 0.8 |
| CCC(=O)OC [methyl propanoate] + COCC[N+]1(C)CCOCC1.O=S(=O)([N-]S(=O)(=O)C(F)(F)F)C(F)(F)F | 0.949 ± 0.06 | 0.966 ± 0.061 | 0.982 ± 0.062 | 0.998 ± 0.062 | 1.01 ± 0.06 | 1.03 ± 0.06 |
| CC#N [acetonitrile] + COCC[N+]1(C)CCOCC1.O=S(=O)([N-]S(=O)(=O)C(F)(F)F)C(F)(F)F | 0.423 ± 0.035 | 0.426 ± 0.035 | 0.428 ± 0.035 | 0.431 ± 0.035 | 0.433 ± 0.035 | 0.436 ± 0.035 |
| CCOC(C)(C)C [2-ethoxy-2-methylpropane] + COCC[N+]1(C)CCOCC1.O=S(=O)([N-]S(=O)(=O)C(F)(F)F)C(F)(F)F | 9.5 ± 0.65 | 9.21 ± 0.63 | 8.97 ± 0.61 | 8.75 ± 0.6 | 8.49 ± 0.58 | 8.3 ± 0.57 |
| CC(C)(C)O [2-methylpropan-2-ol] + COCC[N+]1(C)CCOCC1.O=S(=O)([N-]S(=O)(=O)C(F)(F)F)C(F)(F)F | 2.22 ± 0.15 | 2.03 ± 0.14 | 1.88 ± 0.13 | 1.75 ± 0.12 | 1.62 ± 0.11 | 1.52 ± 0.1 |
| CCC(C)(C)C [2,2-dimethylbutane] + COCC[N+]1(C)CCOCC1.O=S(=O)([N-]S(=O)(=O)C(F)(F)F)C(F)(F)F | 32.4 ± 2.2 | 28.4 ± 1.9 | 25.7 ± 1.8 | 23.2 ± 1.6 | 21.2 ± 1.4 | 19.5 ± 1.3 |
| CCCCC [pentane] + COCC[N+]1(C)CCOCC1.O=S(=O)([N-]S(=O)(=O)C(F)(F)F)C(F)(F)F | 25 ± 1.7 | 22.5 ± 1.5 | 20.6 ± 1.4 | 19 ± 1.3 | 17.4 ± 1.2 | 16.3 ± 1.1 |
| Cc1ccccc1 [toluene] + COCC[N+]1(C)CCOCC1.O=S(=O)([N-]S(=O)(=O)C(F)(F)F)C(F)(F)F | 2.01 ± 0.14 | 2.01 ± 0.14 | 2 ± 0.14 | 1.99 ± 0.14 | 1.98 ± 0.13 | 1.97 ± 0.13 |
| CO [methanol] + COCC[N+]1(C)CCOCC1.O=S(=O)([N-]S(=O)(=O)C(F)(F)F)C(F)(F)F | 1.28 ± 0.08 | 1.18 ± 0.08 | 1.1 ± 0.07 | 1.02 ± 0.06 | 0.95 ± 0.06 | 0.897 ± 0.057 |
| C1COCCO1 [1,4-dioxane] + COCC[N+]1(C)CCOCC1.O=S(=O)([N-]S(=O)(=O)C(F)(F)F)C(F)(F)F | 0.57 ± 0.041 | 0.596 ± 0.042 | 0.615 ± 0.043 | 0.638 ± 0.044 | 0.653 ± 0.045 | 0.674 ± 0.046 |
| COC(C)=O [methyl ethanoate] + COCC[N+]1(C)CCOCC1.O=S(=O)([N-]S(=O)(=O)C(F)(F)F)C(F)(F)F | 0.684 ± 0.046 | 0.7 ± 0.047 | 0.714 ± 0.048 | 0.729 ± 0.048 | 0.74 ± 0.049 | 0.754 ± 0.05 |
| C#CCCCCC [1-heptyne] + COCC[N+]1(C)CCOCC1.O=S(=O)([N-]S(=O)(=O)C(F)(F)F)C(F)(F)F | 7.44 ± 0.51 | 7.24 ± 0.49 | 7.09 ± 0.48 | 6.94 ± 0.47 | 6.79 ± 0.46 | 6.65 ± 0.45 |
| CCCCCCCCCC [decane] + COCC[N+]1(C)CCOCC1.O=S(=O)([N-]S(=O)(=O)C(F)(F)F)C(F)(F)F | 192 ± 13 | 165 ± 11 | 145 ± 10 | 126 ± 9 | 111 ± 8 | 98.2 ± 6.7 |
| CC(C)CO [2-methyl-1-propanol] + COCC[N+]1(C)CCOCC1.O=S(=O)([N-]S(=O)(=O)C(F)(F)F)C(F)(F)F | 3.19 ± 0.22 | 2.81 ± 0.19 | 2.51 ± 0.17 | 2.25 ± 0.15 | 2.04 ± 0.14 | 1.89 ± 0.13 |
